Measurements published in ChEMBL document CHEMBL3727354, “3-(2-amino-ethyl)-5-(3-cyclohexyl-propylidene)-thiazolidine-2,4-dione and its derivatives as multiple signaling pathway inhibitors and for the treatment of cancer” (2011).
Active and inactive are the calls of the source. The calls are words filed in the database; no cut-off is given here.

What was measured:
Mus musculus [1] = assay: Toxicity in B6C3F1 mouse assessed as effect on body weight at 30 to 80 mg/kg, po administered for 21 days; assay type: organism-based; conditions: in vivo, 504 h
U-937 = assay: Induction of apoptosis in human U937 cells after 24 hrs by annexin V/propidium iodide staining-based flow cytometric analysis; assay type: functional, cell-based
[2] = Cell cycle arrest in human U937 cells assessed as decrease in cell level at S phase after 24 hrs by propidium iodide staining-based flow cytometric analysis; assay type: functional; conditions: U-937
Mus musculus [3] = assay: Toxicity in B6C3F1 mouse assessed as effect on general health at 30 to 80 mg/kg, po administered for 21 days; assay type: organism-based; conditions: in vivo, 504 h
[4] = Cell cycle arrest in human U937 cells assessed as decrease in cell level at G0/G1 phase after 24 hrs by propidium iodide staining-based flow cytometric analysis; assay type: functional; conditions: U-937
[5] = Inhibition of PI3K/Akt pathway in human U937 cells assessed as reduction of Akt phosphorylation preincubated for 1 hr followed by PMA stimulation measured after 30 mins by Western blot analysis; assay type: cell-based; conditions: U-937
[6] = Cell cycle arrest in human U937 cells assessed as accumulation at G2/M phase after 24 hrs by propidium iodide staining-based flow cytometric analysis; assay type: functional; conditions: U-937
M12 = assay: Induction of apoptosis in human M12 cells after 24 hrs by annexin V/propidium iodide staining-based flow cytometric analysis; assay type: functional, cell-based
[7] = Inhibition of Raf/MEK/ERK pathway in human U937 cells assessed as reduction of MEK phosphorylation at 0.3 to 30 uM preincubated for 1 hr followed by PMA stimulation measured after 30 mins by Western blot analysis in presence of MEK inhibitor PD184352; assay type: cell-based; conditions: U-937
[8] = Inhibition of Raf/MEK/ERK pathway in human U937 cells assessed as inhibition of ERK1/2 phosphorylation at Thr202/Tyr204 at 3 uM preincubated for 1 hr followed by PMA stimulation measured after 30 mins by Western blot analysis; assay type: cell-based; conditions: U-937
B16-F10 [9] = assay: Antitumor activity against mouse B16F10 cells implanted in B6C3F1 mouse assessed as decrease in lung tumor nodules at 20 mg/kg administered daily via oral gavage started one day before tumor implantation and stopped at day 15 post tumor implantation measured at day 18; assay type: functional, organism-based
DU-145 = assay: Induction of apoptosis in human DU145 cells at 5 to 25 uM after 24 hrs by annexin V/propidium iodide staining-based flow cytometric analysis; assay type: functional, cell-based
[10] = Inhibition of Raf/MEK/ERK pathway in human U937 cells assessed as reduction of MEK phosphorylation preincubated for 1 hr followed by PMA stimulation measured after 30 mins by Western blot analysis; assay type: cell-based; conditions: U-937
Mus musculus [11] = assay: Toxicity in B6C3F1 mouse assessed as effect on body weight at 20 mg/kg, po administered for 21 days; assay type: organism-based; conditions: in vivo, 504 h
B16-F10 [12] = assay: Antitumor activity against mouse B16F10 cells implanted in B6C3F1 mouse assessed as increase in mouse survival rate at 50 mg/kg, ip administered on day 11 post tumor implantation measured twice a day during compound dosing; assay type: functional, organism-based
Mus musculus [13] = assay: Toxicity in B6C3F1 mouse assessed as effect on general health at 20 mg/kg, po administered for 21 days; assay type: organism-based; conditions: in vivo, 504 h

| SMILES | Activity (Mus musculus [1]) | Activity (U-937) | Activity [2] | Activity (Mus musculus [3]) | Activity [4] | inhibition [5] | Activity [6] | Activity (M12) | inhibition [7] | inhibition [8] | Activity (B16-F10 [9]) | Activity (DU-145) | inhibition [10] | Activity (Mus musculus [11]) | Activity (B16-F10 [12]) | Activity (Mus musculus [13]) |
| --- | --- | --- | --- | --- | --- | --- | --- | --- | --- | --- | --- | --- | --- | --- | --- | --- |
| Cl.NCCN1C(=O)S/C(=C\CCC2CCCCC2)C1=O | Non-toxic | Dose-dependent effect | Active | Non-toxic | Active | Dose-dependent effect | Active | Dose-dependent effect | inactive | Active | Active | inactive | Dose-dependent effect |  |  |  |
| Cl.NCCN1C(=O)S/C(=C\CCc2ccccc2)C1=O |  |  | Active |  | Active |  | Active |  |  |  |  |  |  | Non-toxic | Active | Non-toxic |
